# Data published in US20210275449A1, “Inhalable Formulation of a Solution Containing Glycopyrronium Bromide” (priority 2020, published 2021).
# What was measured:
# [1] = Aerodynamic particle size distribution of Sample VI by Next Generation Impactor (NGI), soft mist inhaler; type: physicochemical; conditions: NGI 30 L/minute, RH 90±2%
# Method: The aerodynamic particle size distribution was determined using a Next Generation Impactor instrument (NGI). The soft mist inhaler was held close to the NGI inlet until no aerosol was visible. The flow rate of the NGI was set to 30 L/minute and was operated under ambient temperature and a relative humidity (RH) of 90±2%.
# Sample VI was discharged into the NGI. Fractions of the dose were deposited at different stages of the NGI, in accordance with the particle size of the fraction. Each fraction was washed from the stage and analyzed using HPLC.
# The particle size distribution was expressed in terms of mass median aerodynamic diameter (MMAD) and geometric standard deviation (GSD).
# [2] = Aerodynamic particle size distribution by Andersen Cascade Impactor (ACI); type: physicochemical; conditions: Samples I-V, flow rate 28.3 L/min
# Method: An Andersen Cascade Impactor instrument (ACI) was used to determine the particle size distribution of Samples I-V. The test was conducted at a flow rate of 28.3 L/min. Deposition of the active substance on each ACI plate was confirmed by high pressure liquid chromatography. The particle size was expressed in terms of mass median aerodynamic diameter (MMAD) and Geometric Standard Deviation (GSD).
substance,measurement,setting,value
"(3RS)-3-[(2 SR)-(2-cyclopentyl-2-hydroxy-2-penylacetyl)oxy]-1,1-dimethlypyrrolidinium bromide [Glycopyrronium bromide]",Fine Particle Fraction (FPF),[1],70.45%
same,Fine particle dose (FPD),[1],8.44 µg
same,GSD,[1],less than 2
same,MMAD,[1],less than 6 μm
same,GSD,[1]; listed as Glycopyrrolate,1.77
same,MMAD,[1]; listed as Glycopyrrolate,4.05 μm
same,GSD,[2],1.7
same,MMAD,[2],4.4 μm
